PubChem BioAssay AID1963449 (Molecular Pharmacology Branch, DTP, NCI, 2024)

Tested on: 596521-263-R-J1-PDC complex spheroid growth
Assay: Anticancer human tumor 596521-263-R-J1-PDC patient-derived soft tissue sarcoma cell line growth inhibition [Asc]
Details: for IC50: curve of first compound; for viability, T/C: stronger effect = lower value
In short: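 Complex spheroids combining tumor cells with HUVEC endothelial cells and human MSCs, at 37 degrees C, 5% CO2; agents tested alone or combined, half-log dilutions from at or near clinical Cmax, or 10 microM if Cmax unknown.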
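Note: spheroids exposed to compounds for 7 days.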

For `C#Cc1c(F)ccc2cc(O)cc(-c3ncc4c(N5CC6CCC(C5)N6)nc(OCC56CCCN5CC(F)C6)nc4c3F)c12` (centres undefined) + CCN1C(C(=O)NC23CCC(C(=O)O)(CC2)CC3)C(c2cccc(Cl)c2F)C2(C(=O)Nc3cc(Cl)ccc32)C12CCCCC2, the IC50 (second compound 0.00949 µM) was over 10 µM, the IC50 (second compound 0.03 µM) was over 10 µM and the IC50 (second compound 0.0949 µM) was over 10 µM. For the same compound, the IC50 (second compound 0.3 µM) was over 10 µM, the IC50 (second compound 0.949 µM) was over 10 µM and the IC50 (second compound 3 µM) was over 10 µM. It also gave a viability, T/C (second compound 0.00949 µM, first compound 0.0316 µM) of 90.9%, a viability, T/C (second compound 0.00949 µM, first compound 0.1 µM) of 88.8% and a viability, T/C (second compound 0.00949 µM, first compound 0.316 µM) of 93.7%. For the same compound, the viability, T/C (second compound 0.00949 µM, first compound 1 µM) was 93.1%, the viability, T/C (second compound 0.00949 µM, first compound 3.16 µM) was 100% and the viability, T/C (second compound 0.00949 µM, first compound 10 µM) was 87.7%. The viability, T/C (second compound 0.03 µM, first compound 0.0316 µM) was 111%, the viability, T/C (second compound 0.03 µM, first compound 0.1 µM) was 101% and the viability, T/C (second compound 0.03 µM, first compound 0.316 µM) was 85.8%. It also gave a viability, T/C (second compound 0.03 µM, first compound 1 µM) of 96.2%, a viability, T/C (second compound 0.03 µM, first compound 3.16 µM) of 107% and a viability, T/C (second compound 0.03 µM, first compound 10 µM) of 80%. It also gave a viability, T/C (second compound 0.0949 µM, first compound 0.0316 µM) of 99.3%, a viability, T/C (second compound 0.0949 µM, first compound 0.1 µM) of 84.3% and a viability, T/C (second compound 0.0949 µM, first compound 0.316 µM) of 96.9%. For the same compound, the viability, T/C (second compound 0.0949 µM, first compound 1 µM) was 92%, the viability, T/C (second compound 0.0949 µM, first compound 3.16 µM) was 102% and the viability, T/C (second compound 0.0949 µM, first compound 10 µM) was 84.8%. The viability, T/C (second compound 0.3 µM, first compound 0.0316 µM) was 103%, the viability, T/C (second compound 0.3 µM, first compound 0.1 µM) was 98.9% and the viability, T/C (second compound 0.3 µM, first compound 0.316 µM) was 97.8%. For the same compound, the viability, T/C (second compound 0.3 µM, first compound 1 µM) was 100%, the viability, T/C (second compound 0.3 µM, first compound 3.16 µM) was 119% and the viability, T/C (second compound 0.3 µM, first compound 10 µM) was 85.7%. It also gave a viability, T/C (second compound 0.949 µM, first compound 0.0316 µM) of 92.4%, a viability, T/C (second compound 0.949 µM, first compound 0.1 µM) of 108% and a viability, T/C (second compound 0.949 µM, first compound 0.316 µM) of 103%. The viability, T/C (second compound 0.949 µM, first compound 1 µM) was 98.7%, the viability, T/C (second compound 0.949 µM, first compound 3.16 µM) was 87% and the viability, T/C (second compound 0.949 µM, first compound 10 µM) was 80.3%. The viability, T/C (second compound 3 µM, first compound 0.0316 µM) was 81.3%, the viability, T/C (second compound 3 µM, first compound 0.1 µM) was 85.7% and the viability, T/C (second compound 3 µM, first compound 0.316 µM) was 85.1%. It also gave a viability, T/C (second compound 3 µM, first compound 1 µM) of 88.8%, a viability, T/C (second compound 3 µM, first compound 3.16 µM) of 88.2% and a viability, T/C (second compound 3 µM, first compound 10 µM) of 78.9%.

With `Cc1nc(N2CCC3(CC2)COC(C)C3N)c(CO)nc1Sc1ccnc(N)c1Cl` (centres undefined) + CCN1C(C(=O)NC23CCC(C(=O)O)(CC2)CC3)C(c2cccc(Cl)c2F)C2(C(=O)Nc3cc(Cl)ccc32)C12CCCCC2 the IC50 (second compound 0.00949 µM) was over 3 µM, the IC50 (second compound 0.03 µM) was over 3 µM and the IC50 (second compound 0.0949 µM) was over 3 µM. It also gave an IC50 (second compound 0.3 µM) of over 3 µM, an IC50 (second compound 0.949 µM) of over 3 µM and an IC50 (second compound 3 µM) of over 3 µM. For the same compound, the viability, T/C (second compound 0.00949 µM, first compound 0.00949 µM) was 97.8%, the viability, T/C (second compound 0.00949 µM, first compound 0.03 µM) was 92.9% and the viability, T/C (second compound 0.00949 µM, first compound 0.0949 µM) was 87.7%. For the same compound, the viability, T/C (second compound 0.00949 µM, first compound 0.3 µM) was 84.5%, the viability, T/C (second compound 0.00949 µM, first compound 0.949 µM) was 78.6% and the viability, T/C (second compound 0.00949 µM, first compound 3 µM) was 67.8%. It also gave a viability, T/C (second compound 0.03 µM, first compound 0.00949 µM) of 92.5%, a viability, T/C (second compound 0.03 µM, first compound 0.03 µM) of 99.1% and a viability, T/C (second compound 0.03 µM, first compound 0.0949 µM) of 104%. The viability, T/C (second compound 0.03 µM, first compound 0.3 µM) was 88.3%, the viability, T/C (second compound 0.03 µM, first compound 0.949 µM) was 81.2% and the viability, T/C (second compound 0.03 µM, first compound 3 µM) was 66.2%. The viability, T/C (second compound 0.0949 µM, first compound 0.00949 µM) was 101%, the viability, T/C (second compound 0.0949 µM, first compound 0.03 µM) was 92.9% and the viability, T/C (second compound 0.0949 µM, first compound 0.0949 µM) was 87.4%. The viability, T/C (second compound 0.0949 µM, first compound 0.3 µM) was 91.3%, the viability, T/C (second compound 0.0949 µM, first compound 0.949 µM) was 80% and the viability, T/C (second compound 0.0949 µM, first compound 3 µM) was 69.3%. For the same compound, the viability, T/C (second compound 0.3 µM, first compound 0.00949 µM) was 101%, the viability, T/C (second compound 0.3 µM, first compound 0.03 µM) was 95% and the viability, T/C (second compound 0.3 µM, first compound 0.0949 µM) was 96.5%. For the same compound, the viability, T/C (second compound 0.3 µM, first compound 0.3 µM) was 91.5%, the viability, T/C (second compound 0.3 µM, first compound 0.949 µM) was 83.8% and the viability, T/C (second compound 0.3 µM, first compound 3 µM) was 69.3%. It also gave a viability, T/C (second compound 0.949 µM, first compound 0.00949 µM) of 90.8%, a viability, T/C (second compound 0.949 µM, first compound 0.03 µM) of 101% and a viability, T/C (second compound 0.949 µM, first compound 0.0949 µM) of 100%. For the same compound, the viability, T/C (second compound 0.949 µM, first compound 0.3 µM) was 91.5%, the viability, T/C (second compound 0.949 µM, first compound 0.949 µM) was 90.1% and the viability, T/C (second compound 0.949 µM, first compound 3 µM) was 73.8%. It also gave a viability, T/C (second compound 3 µM, first compound 0.00949 µM) of 82.6%, a viability, T/C (second compound 3 µM, first compound 0.03 µM) of 81.6% and a viability, T/C (second compound 3 µM, first compound 0.0949 µM) of 82.1%. The viability, T/C (second compound 3 µM, first compound 0.3 µM) was 86.1%, the viability, T/C (second compound 3 µM, first compound 0.949 µM) was 65.8% and the viability, T/C (second compound 3 µM, first compound 3 µM) was 58.2%.
